Reference: US20220249637A1, “COMBINATION THERAPY OF A CELL-MEDIATED CYTOTOXIC THERAPY AND AN INHIBITOR OF A PROSURVIVAL BCL2 FAMILY PROTEIN” (Juno Therapeutics, Inc., priority 2019, published 2022)

Columns and labels:
[1] = system: cancer cells resistant to CAR T cell-mediated killing; assay: T cell-mediated killing of cancer cells by CAR T cells in presence of BCL2 inhibitor; format: cell-based; details: cancers resistant to T cell therapy alone, low doses without activity on tumor alone
Granta-519 = assay: NucLight Red target cell killing by live cell imaging; format: cell-based
Description: Anti-CD19 CAR-expressing T cell compositions were generated as described in Example 1 and were cultured with a CD19-expressing lymphoma target cell lines, either SUDHL6, WSU-DLCL2, or Granta-519 at an E:T ratio of 2.5:1. The co-cultures were carried out in the presence of 20 nM or 200 nM of the exemplary BCL2 inhibitor, venetoclax. As controls, target tumor cell lines were incubated only in the presence of the inhibitor or the anti-CD19 CAR T cells. Target cells were labeled with NucLight Red (NLR) to permit tracking of target cells by microscopy and target cell killing was monitored by the loss of fluorescent signal over time, substantially as described in Example 1.
In a further experiment, anti-CD19 CAR-expressing T cell compositions, generated as described above, were cultured with the Granta-519 CD19-expressing lymphoma target cell line. Granta-519 cells were engineered with a lentiviral reagent to express NucLight Red (NLR) to permit tracking of target cells by microscopy. […] The anti-CD19 CAR T cells were provided in the co-cultures at the suboptimal dose, and the co-cultures were carried out in the presence of 0, 0.01, 0.1, or 1 μM of the exemplary BCL2 inhibitor venetoclax. For comparison, target tumor cell lines were incubated only in the presence of 0, 0.01, 0.1, or 1 μM of the inhibitor. Red target cell counts were enumerated by live cell imaging and tracked over time.

[2] = system: cells of the cell therapy (CAR-T cells); assay: Activation induced cell death of cells of the cell therapy in presence of inhibitor; format: cell-based; details: particularly if given at too high of a dosage
Text: In some aspects, the provided methods, combinations and uses provide for or achieve improved or more durable responses or efficacy as compared to alternative methods, such as alternative methods involving only the administration of the immunotherapy or cell therapy but not in combination with an inhibitor of a prosurvival BCL2 family protein (e.g. venetoclax). In some embodiments, the methods are advantageous by virtue of administering an inhibitor of a prosurvival BCL2 family protein (e.g. venetoclax) shortly before (e.g. within 7 days) or concurrently with administration of an immunotherapy or a cell therapy (e.g. T cell therapy, such as CAR-T cell), thereby sensitizing the tumor and/or making the tumor less resistant to, or more susceptible to, treatment with the immunotherapy or cell therapy. […] However, delaying administration of the inhibitor of a prosurvival BCL2 family protein (e.g. venetoclax) until a time after AICD is at or has reached it peak or been reduced after having peaked can avoid detrimental effects on the cells of the cell therapy while substantially improving, e.g. synergistically increasing, T cell-mediated killing of the tumor by cells of the cell therapy (e.g. CAR-T cells).

human plasma proteins = details: cited from earlier work
RL spheroids = assay: RL spheroid 3D tumor model, co-culture for 9 days; format: cell-based
Description: The resistance of the RL cell line to CD19-directed CAR T cells was further assessed in a 3D tumor model. An anti-CD19 CAR-expressing T cell composition was generated from a human adult donor, substantially as described in Example 1. RL tumor cells engineered to express NLR were allowed to form spheroids for 72 hours, then co-cultured for 9 days with the anti-CD19 CAR T cells at an E:T ratio of 1:1. A subtherapeutic concentration of the exemplary BCL2 inhibitor venetoclax (0.1 μM) was added at the beginning of co-culture, and tumor volume was measured over time (FIG. 5B).
In a related experiment, spheroids were generated from CD19-expressing RL cells as described, and co-cultured for 9 days with anti-CD19 CAR T cells and increasing concentrations of venetoclax (0.01 μM, 0.1 μM, or 1.0 μM), or with only corresponding concentrations of venetoclax.

JeKo-1 target cells = assay: JeKo-1 target cell co-culture for 100 hours; format: cell-based
Description: Further, the cytolytic activity of anti-CD19 CAR T cells was not affected when co-cultured with JeKo-1 target cells for 100 hours in the presence of 1.0 μM venetoclax.

CD3+ CAR T cells = assay: Delayed addition of venetoclax to RL / CAR T co-culture, CAR T cell number; format: cell-based; details: 6 days
Description: RL target cells were co-cultured with CD19-targeting CAR T cells, generated substantially as described in Example 1, for 6 days in the absence or presence of the exemplary BCL2 inhibitor venetoclax (0.01 μM, 0.1 μM, or 1.0 μM). Venetoclax was added concurrently with co-culture or 24, 48, or 72 hours after the start of co-culture. As a control, RL target cells were cultured in the presence of venetoclax, but without CAR T cells.
After 6 days of co-culture, the number of CD3+ CAR T cells and target cells was assessed.

RL cells = assay: RL target cell co-culture with CAR T cells and venetoclax (NLR microscopy); format: cell-based; details: with CAR T cells E:T 1:1, 0.1 venetoclax
Description: Anti-CD19 CAR-expressing T cell compositions, generated as described in Example 1, were cultured with the CD19-expressing lymphoma target cell line RL. Target cells were engineered with a lentiviral reagent to express NucLight Red (NLR) to permit tracking of the cells by microscopy. […] The anti-CD19 CART cells were co-cultured with target RL cells at an E:T ratio of 1:1, and the co-cultures were carried out in the presence of 0.1 μM of the exemplary BCL2 inhibitor venetoclax. For comparison, target cells were incubated only in the presence of the CAR T cells or 0.1 μM of the inhibitor.

- number of CD3+ CAR T cells (CD3+ CAR T cells; 0.1 μM or 1.0 μM added concurrently or 24 hours later): reduced
SMILES: CC1(C)CCC(CN2CCN(c3ccc(C(=O)NS(=O)(=O)c4ccc(NCC5CCOCC5)c([N+](=O)[O-])c4)c(Oc4cnc5[nH]ccc5c4)c3)CC2)=C(c2ccc(Cl)cc2)C1 [venetoclax]
- T cell-mediated killing of cancer cells by a T cell therapy (CAR T cells) [1]: improves T cell-mediated killing of cancer cells
- CD19-directed CAR T cell killing (Granta-519; co-culture with anti-CD19 CAR T cells E:T 2.5:1, 20 or 200 nM venetoclax): enhanced
- target cell number (Granta-519; venetoclax alone, 0.01 μM): did not substantially impact target cell number
- tumor cell killing (Granta-519; venetoclax alone, 20 nM or 200 nM): did not substantially impact tumor cell killing
- target cell number (Granta-519; venetoclax alone, 0.1 μM and 1.0 μM): modest effect on target cell number
- target cell number (Granta-519; with anti-CD19 CAR T cells E:T 1:1, 0.01 μM venetoclax, compared to 0.01 μM inhibitor only): demonstrated a decrease in the number of target cells
- target cell number / CAR T cell killing (Granta-519; with anti-CD19 CAR T cells E:T 1:1, 0.1 μM and 1.0 μM venetoclax): even greater CD19-directed CAR T cell killing
- activation induced cell death (AICD) of cells of the cell therapy [2]: can exacerbate activation induced cell death (AICD)
- plasma protein binding (human plasma proteins): can bind human plasma proteins
- apoptosis of tumor cells (RL spheroids; combination of venetoclax and anti-CD19 CAR T cells (data not shown)): induce apoptosis of tumor cells
- tumor size (RL spheroids; day 9, venetoclax 0.01, 0.1 or 1.0 μM): larger concentrations of venetoclax resulted in larger decreases in tumor size
- size of RL spheroids (RL spheroids; day 9, with anti-CD19 CAR T cells, venetoclax 0.01, 0.1 or 1.0 μM, compared to venetoclax only): decreased substantially more
- tumor volume (RL spheroids; with anti-CD19 CAR T cells E:T 1:1, 0.1 μM venetoclax, 9 days): resulted in decreased tumor volume
- cytolytic activity of anti-CD19 CAR T cells (JeKo-1 target cells; 1.0 μM venetoclax, 100 hours): not affected
- number of JeKo-1 target cells (JeKo-1 target cells; venetoclax alone): not reduced
- number of CD3+ CAR T cells (CD3+ CAR T cells; 0.01 μM, all time points): not observed to reduce CD3+ CAR T cell number
- number of CD3+ CAR T cells (CD3+ CAR T cells; added 48 or 72 hours following co-culture, any concentration): a reduction in CD3+ CAR T cells was not observed
- target cell killing (RL cells): sensitized to the CD19-directed CAR T cell killing
